The nature of data set [1]: UV/VIS absorption spectra. Conditions: for bathochromic shift compared to the absorption maximum of Li-Cor-A: versus λmax = 680 nm; for λmax (UV/VIS spectrum): in H2O, 5 - 16 µM (Figure 13) or 4 - 15 µM (Figure 14). Format: physicochemical.
The subject of another data set is prostate cancer cells. As to the kind of experiment: PIT controls on the prostate cancer cell lines of Figure 16E (free dye; conjugate without irradiation). It counts as cell-based, human. Conditions: equimolar concentrations of free dye, 32 J/cm^2 red light, in words. How it is done:
2.5*10^5 cells were seeded per well in 35 mm cell culture dishes (Thermo Fischer Scientific) and cultivated for 24 h in the incubator (37°C, 5% CO2). On the next day, cell culture medium was removed and fresh medium containing the appropriate treatment (medium, 10 µg/ml antibody, 10 µg/ml conjugate or the equimolar amount of free dye) was administered to the cells. After incubation (37°C, 5% CO2, 24h), the cells were washed with 1x PBS and irradiated with a red light-emitting diode (LED), which emits light at λmax = 680 nm (L690-66-60, Marubeni, Tokyo, Japan) or a LED, which emits light at (λmax = 780 nm) (L780-66-60-550) at various mean irradiation doses. Power densities were quantified with an optical power meter (PM 100, Thorlabs, Newton, USA). After 24h, cell viability was analyzed using the vital dye erythrosine b (Logos Biosystems, Gyeonggi-do, South Korea) and the Neubauer Counting Chamber. Significance of the data was calculated with the Student's t test (unpaired, parametric with Welch's […]) using the GraphPad Prism 7 software (GraphPad Software Inc., San Diego, USA).

Data on 7 substances can be found in patent publication EP4435060A1, “SILICON PHTHALOCYANINE AND TRIBENZOPHTHALOCYANINE DYES AND THEIR USE IN DIAGNOSIS AND THERAPY” (Albert-Ludwigs-Universität Freiburg, priority 2023, dated 2024).

Regarding “2-[({5-[(1H-2,5-Dioxopyrrol-1-yl)pent-1-yl]amino]carbonylamino)}but-1-yn-yl)phenoxy]-29,31-bis[(3,4,5-tris{[1-(sodium 3-sulfonatopropyl)-1,2,3-triazol-4-yl]methoxy}-phenyl)methoxyjsilanediyl-29H,31H-silicon phthalocyanine [WB692-CB2]”, in data set [1], the “absorption maximum λmax in the UV/VIS spectrum” value (shortened to “absorption maximum λmax”) amounted to 692 nm and the “bathochromic shift compared to the absorption maximum of Li-Cor-A” value (shortened to “bathochromic shift”) turned out to be 12 nm.

For the substance “2-({[({6-[(2,5-Dihydro-1H-2,5-dioxopyrrol-1-yl)oxy]-6-oxohex-1-yl}amino)-carbonyloxy]but-1-ynyl}phenoxy)-29,31-bis[(3,4,5-tris{[1-(sodium 3-sulfonatopropyl)-1,2,3-tri-azol-4-yl]methoxy}phenyl)methoxy]silanediyl-29H,31H-silicon phthalocyanine [WB692-LB1]”, in data set [1], the “absorption maximum λmax” value came out at 692 nm and the “bathochromic shift” value amounted to 12 nm.

For the substance “2-(4-[4-({[7-oxo-7-(perfluorophenoxy) heptyl]ca rbamoyl} oxy) but-1-yn-1-yl]phenoxy)-29,31-bis[(3,4,5-tris{[1-(sodium 3-sulfonatopropyl)-1,2,3-triazol-4-yl]methoxy}phenyl)methoxy]silanediyl-29H,31H-silicon phthalocyanine [WB692-LB2]”, in data set [1], the “absorption maximum λmax” value is 692 nm and the “bathochromic shift” value is recorded as 12 nm.

On to “2-({[({4-[(2,5-Dihydro-1H-2,5-dioxopyrrol-1-yl)oxy]-4-oxobut-1-yl}amino)-carbonyloxy]but-1-ynyl}phenoxy)-29,31-bis[(3,4,5-tris{[1-(sodium 3-sulfonatopropyl)-1,2,3-tri-azol-4-yl]methoxy}phenyl)methoxy]silanediyl-29H,31H-silicon tribenzophthalocyanine [WB795-LB1]”, for which, in data set [1], the “absorption maximum λmax” value is reported as 795 nm and the “bathochromic shift” value is reported as 115 nm.

Turning to “2-(4-Iodophenoxy)-29,31-bis[(3,4,5-tris{[1-(sodium 3-sulfonatopropyl)-1,2,3-triazol-4-yl]methoxy}phenyl)methoxy]silanediyl-29H,31H-silicon tribenzophthalocyanine [compound 31]”, the “λalmost max (UV/VIS spectrum)” value in data set [1] (4 - 15 µM in H2O, pathlength = 1 cm) came out at 765 nm. Further, in data set [1] (pathlength = 1 cm), the “λmax (UV/VIS spectrum)” value came out at 795 nm.

As for “2-[({5-[(1H-2,5-Dioxopyrrol-1-yl)pent-1-yl]amino]carbonyloxy)}but-1-yn-yl)phenoxy]-29,31-bis[(3,4,5-tris{[1-(sodium 3-sulfonatopropyl)-1,2,3-triazol-4-yl]methoxy}-phenyl)methoxyjsilanediyl-29H,31H-silicon phthalocyanine [WB692-CB1]”, the “viability of irradiated cells incubated with free dye” value in the data set on prostate cancer cells is “remained alive”. In data set [1], the “absorption maximum λmax” value turned out to be 692 nm and the “bathochromic shift” value stood at 12 nm. Besides, in data set [1] (pathlength = 1 cm), the “λmax (UV/VIS spectrum)” value is recorded as 692 nm.

On to “2-[({5-[(1H-2,5-Dioxopyrrol-1-yl)pent-1-yl]amino]carbonylamino)}but-1-yn-yl)phenoxy]-29,31-bis[(3,4,5-tris{[1-(sodium 3-sulfonatopropyl)-1,2,3-triazol-4-yl]methoxy}-phenyl)methoxy]silanediyl-29H,31H-silicon tribenzophthalocyanine [WB795-CB1]”, for which, in data set [1], the “absorption maximum λmax” value is given as 795 nm and the “bathochromic shift” value is recorded as 115 nm.
